# Assays:
# Assay type in all cases: functional
# Amaranthus viridis = experiment: Post-emergence herbicidal activity against three-leaf stage Amaranthus viridis assessed as efficacy of weed growth control at 40 g ai/ha under greenhouse conditions
# Echinochloa crus-galli [1] = experiment: Post emergence herbicidal activity against three-leaf stage Echinochloa crus-galli (barnyard grass) assessed as efficacy of weed growth control at 750 g ai/ha under greenhouse conditions
# Galinsoga quadriradiata [2] = experiment: Post-emergence herbicidal activity against four-leafstage of Galinsoga quadriradiata assessed as efficacy of weed growth control at 750 g ai/ha under greenhouse conditions
# Elymus repens [3] = experiment: Post-emergence herbicidal activity against three to four-leaf stage Elymus repens (couch grass) assessed as efficacy of weed growth control at 40 g ai/ha under greenhouse conditions
# Chenopodium album [4] = experiment: Post emergence herbicidal activity against two-leaf stage Chenopodium album assessed as efficacy of weed growth control at 40 g ai/ha under greenhouse conditions
# Cyperus rotundus [5] = experiment: Post-emergence herbicidal activity against four to five-leaf stage Cyperus rotundus assessed as efficacy of weed growth control at 80 g ai/ha under greenhouse conditions
# Persicaria lapathifolia [6] = experiment: Post-emergence herbicidal activity against three-leaf stage Persicaria lapathifolia assessed as efficacy of weed growth control at 60 g ai/ha under greenhouse conditions
# Chenopodium album [7] = experiment: Post-emergence herbicidal activity against two-leaf stage Chenopodium album assessed as efficacy of weed growth control at 80 g ai/ha under greenhouse conditions
# Sida spinosa [8] = experiment: Post-emergence herbicidal activity against two-leaf stage Sida spinosa assessed as efficacy of weed growth control at 60 g ai/ha under greenhouse conditions
# Capsella bursa-pastoris = experiment: Post-emergence herbicidal activity against four-leafstage Capsella bursa-pastoris assessed as efficacy of weed growth control at 750 g ai/ha under greenhouse conditions
# Galinsoga quadriradiata [9] = experiment: Post-emergence herbicidal activity against four-leafstage of Galinsoga quadriradiata assessed as efficacy of weed growth control at 80 g ai/ha under greenhouse conditions
# Solanum nigrum [10] = experiment: Post emergence herbicidal activity against four-leaf stage Solanum nigrum (black nightshade) assessed as efficacy of weed growth control at 60 g ai/ha under greenhouse conditions
# Cyperus microiria [11] = experiment: Post-emergence herbicidal activity against three-leaf stage Cyperus microiria assessed as efficacy of weed growth control at 60 g ai/ha under greenhouse conditions
# Avena fatua [12] = experiment: Post emergence herbicidal activity against three-leaf stage Avena fatua assessed as efficacy of weed growth control at 750 g ai/ha under greenhouse conditions
# Persicaria longiseta = experiment: Post-emergence herbicidal activity against Persicaria longiseta assessed as inhibition of weed growth at 125 g ai/ha measured 22 to 37 days after compound application under greenhouse conditions; settings: read-out: GI
# Cyperus microiria [13] = experiment: Post-emergence herbicidal activity against three-leaf stage Cyperus microiria assessed as efficacy of weed growth control at 80 g ai/ha under greenhouse conditions
# Sorghum halepense [14] = experiment: Post emergence herbicidal activity against four to five-leaf stage Sorghum halepense (Johnson grass) assessed as efficacy of weed growth control at 40 g ai/ha under greenhouse conditions
# Stellaria media [15] = experiment: Post-emergence herbicidal activity against eight-leaf stage Stellaria media assessed as efficacy of weed growth control at 80 g ai/ha under greenhouse conditions
# Avena fatua [16] = experiment: Post-emergence herbicidal activity against three-leaf stage Avena fatua assessed as efficacy of weed growth control at 80 g ai/ha under greenhouse conditions
# Commelina communis = experiment: Post emergence herbicidal activity against two-leaf stage Commelina communis (Asiatic dayflower) assessed as efficacy of weed growth control at 40 g ai/ha under greenhouse conditions
# Echinochloa crus-galli [17] = experiment: Post emergence herbicidal activity against three-leaf stage Echinochloa crus-galli (barnyard grass) assessed as efficacy of weed growth control at 60 g ai/ha under greenhouse conditions
# Abutilon theophrasti [18] = experiment: Post-emergence herbicidal activity against one-leaf stage Abutilon theophrasti (velvetleaf) assessed as efficacy of weed growth control at 40 g ai/ha under greenhouse conditions
# Abutilon theophrasti [19] = experiment: Post-emergence herbicidal activity against one-leaf stage Abutilon theophrasti (velvetleaf) assessed as efficacy of weed growth control at 750 g ai/ha under greenhouse conditions
# Cyperus rotundus [20] = experiment: Post-emergence herbicidal activity against four to five-leaf stage Cyperus rotundus assessed as efficacy of weed growth control at 750 g ai/ha under greenhouse conditions
# Digitaria sanguinalis = experiment: Post-emergence herbicidal activity against two-leaf stage Digitaria sanguinalis (hairy crabgrass) assessed as efficacy of weed growth control at 750 g ai/ha under greenhouse conditions
# Elymus repens [21] = experiment: Post-emergence herbicidal activity against three to four-leaf stage Elymus repens (couch grass) assessed as efficacy of weed growth control at 750 g ai/ha under greenhouse conditions
# Sorghum halepense [22] = experiment: Post emergence herbicidal activity against four to five-leaf stage Sorghum halepense (Johnson grass) assessed as efficacy of weed growth control at 60 g ai/ha under greenhouse conditions
# Eleusine indica [23] = experiment: Post-emergence herbicidal activity against three-leaf stage Eleusine indica assessed as efficacy of weed growth control at 80 g ai/ha under greenhouse conditions
# Stellaria media [24] = experiment: Post-emergence herbicidal activity against eight-leaf stage Stellaria media assessed as efficacy of weed growth control at 60 g ai/ha under greenhouse conditions
# Persicaria lapathifolia [25] = experiment: Post-emergence herbicidal activity against three-leaf stage Persicaria lapathifolia assessed as efficacy of weed growth control at 40 g ai/ha under greenhouse conditions
# Solanum nigrum [26] = experiment: Post emergence herbicidal activity against four-leaf stage Solanum nigrum (black nightshade) assessed as efficacy of weed growth control at 750 g ai/ha under greenhouse conditions
# Senna tora [27] = experiment: Post-emergence herbicidal activity against one-leaf stage Senna tora assessed as efficacy of weed growth control at 750 g ai/ha under greenhouse conditions
# Stellaria media [28] = experiment: Post-emergence herbicidal activity against eight-leaf stage Stellaria media assessed as efficacy of weed growth control at 750 g ai/ha under greenhouse conditions
# Echinochloa crus-galli [29] = experiment: Post emergence herbicidal activity against three-leaf stage Echinochloa crus-galli (barnyard grass) assessed as efficacy of weed growth control at 40 g ai/ha under greenhouse conditions
# Senna tora [30] = experiment: Post-emergence herbicidal activity against one-leaf stage Senna tora assessed as efficacy of weed growth control at 40 g ai/ha under greenhouse conditions
# Stellaria media [31] = experiment: Post-emergence herbicidal activity against eight-leaf stage Stellaria media assessed as efficacy of weed growth control at 40 g ai/ha under greenhouse conditions
# Sida spinosa [32] = experiment: Post-emergence herbicidal activity against two-leaf stage Sida spinosa assessed as efficacy of weed growth control at 750 g ai/ha under greenhouse conditions
# Eleusine indica [33] = experiment: Post emergence herbicidal activity against three-leaf stage Eleusine indica assessed as efficacy of weed growth control at 40 g ai/ha under greenhouse conditions
# Cyperus rotundus [34] = experiment: Post-emergence herbicidal activity against four to five-leaf stage Cyperus rotundus assessed as efficacy of weed growth control at 60 g ai/ha under greenhouse conditions
# Persicaria lapathifolia [35] = experiment: Post-emergence herbicidal activity against three-leaf stage Persicaria lapathifolia assessed as efficacy of weed growth control at 80 g ai/ha under greenhouse conditions
# Chenopodium album [36] = experiment: Post-emergence herbicidal activity against two-leaf stage Chenopodium album assessed as efficacy of weed growth control at 750 g ai/ha under greenhouse conditions
# Persicaria lapathifolia [37] = experiment: Post-emergence herbicidal activity against three-leaf stage Persicaria lapathifolia assessed as efficacy of weed growth control at 750 g ai/ha under greenhouse conditions
smiles,measurement,setting,value
COc1cc(OC)nc(NC(=O)NS(=O)(=O)c2ncccc2C(=O)N(C)C)n1 [NICOSULFURON],Efficacy,Amaranthus viridis,95%
same,Efficacy,Echinochloa crus-galli [1],50%
same,Efficacy,Galinsoga quadriradiata [2],95%
same,Efficacy,Elymus repens [3],70%
same,Efficacy,Chenopodium album [4],50%
same,Efficacy,Cyperus rotundus [5],70%
same,Efficacy,Persicaria lapathifolia [6],95%
same,Efficacy,Chenopodium album [7],95%
same,Efficacy,Sida spinosa [8],50%
same,Efficacy,Capsella bursa-pastoris,95%
same,Efficacy,Galinsoga quadriradiata [9],95%
same,Efficacy,Solanum nigrum [10],50%
same,Efficacy,Cyperus microiria [11],95%
same,Efficacy,Avena fatua [12],<50%
same,inhibition of growth at 125 g/ha,Persicaria longiseta,100%
same,Efficacy,Cyperus microiria [13],95%
same,Efficacy,Sorghum halepense [14],70%
same,Efficacy,Stellaria media [15],95%
same,Efficacy,Avena fatua [16],95%
same,Efficacy,Commelina communis,70%
same,Efficacy,Echinochloa crus-galli [17],95%
same,Efficacy,Abutilon theophrasti [18],50%
same,Efficacy,Abutilon theophrasti [19],95%
same,Efficacy,Cyperus rotundus [20],50%
same,Efficacy,Digitaria sanguinalis,<50%
same,Efficacy,Elymus repens [21],<50%
same,Efficacy,Sorghum halepense [22],95%
same,Efficacy,Eleusine indica [23],95%
same,Efficacy,Stellaria media [24],95%
same,Efficacy,Persicaria lapathifolia [25],70%
same,Efficacy,Solanum nigrum [26],95%
same,Efficacy,Senna tora [27],<50%
same,Efficacy,Stellaria media [28],95%
same,Efficacy,Echinochloa crus-galli [29],95%
same,Efficacy,Senna tora [30],50%
same,Efficacy,Stellaria media [31],70%
same,Efficacy,Sida spinosa [32],95%
same,Efficacy,Eleusine indica [33],95%
same,Efficacy,Cyperus rotundus [34],70%
same,Efficacy,Persicaria lapathifolia [35],95%
same,Efficacy,Chenopodium album [36],95%
same,Efficacy,Persicaria lapathifolia [37],95%
